Target: Dual specificity tyrosine-phosphorylation-regulated kinase 1B (DYRK1B) (Homo sapiens, UniProt Q9Y463)
Assay: DiscoverX competition binding assay (DNA-tagged kinase, 11-point Kd); also enzyme inhibition IC50 […] at […] ATP

Sequence of Dual specificity tyrosine-phosphorylation-regulated kinase 1B (DYRK1B) (Q9Y463 whole entry): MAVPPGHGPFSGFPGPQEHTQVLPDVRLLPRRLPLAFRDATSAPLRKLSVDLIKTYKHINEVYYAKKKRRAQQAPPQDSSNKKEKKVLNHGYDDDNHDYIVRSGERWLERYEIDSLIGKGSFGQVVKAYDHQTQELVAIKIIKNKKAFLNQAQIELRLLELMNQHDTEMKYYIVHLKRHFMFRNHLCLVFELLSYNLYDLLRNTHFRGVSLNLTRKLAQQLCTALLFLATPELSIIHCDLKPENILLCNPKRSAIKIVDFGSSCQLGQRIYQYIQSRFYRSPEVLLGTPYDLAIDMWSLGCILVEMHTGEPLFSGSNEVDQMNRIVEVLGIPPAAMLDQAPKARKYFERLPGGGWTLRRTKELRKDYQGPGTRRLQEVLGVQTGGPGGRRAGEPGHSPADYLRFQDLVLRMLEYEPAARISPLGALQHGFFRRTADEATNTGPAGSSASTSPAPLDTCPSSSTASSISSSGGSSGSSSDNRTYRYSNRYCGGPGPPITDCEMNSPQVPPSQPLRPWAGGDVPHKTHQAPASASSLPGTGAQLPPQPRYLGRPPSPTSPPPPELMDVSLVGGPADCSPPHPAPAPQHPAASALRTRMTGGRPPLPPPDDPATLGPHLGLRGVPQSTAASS

COC(=O)Nc1nc2ccc(C(=O)c3ccccc3)cc2[nH]1 [MBZ, mebendazole]
Kd: 7 nM
